Data set [1] has as its target T1, acidic fibroblast growth factor (aFGF) (Homo sapiens, UniProt P05230).
T1 construct: host or cells: E. coli
The experiment in a line: Microplate thermal shift assay for ligands binding to aFGF, turbidity signal. The following applies: turbidity signal; aFGF 0.25 mg/mL; ligand 47-200 μM. The source says: The second therapeutic receptor tested in the microplate thermal shift assay was acidic fibroblast growth factor (aFGF), a growth factor that plays a key role in angiogenesis (Folkman, J. et al., J. Biol. Chem. 267:1.0931-10934 (1992)). A synthetic gene for this protein was purchased from R&D Systems (Minneapolis, Minn.), and was cloned and expressed in E. coli using methods similar to those described for basic fibroblast growth factor (bFGF) (Thompson, L. D. et al., Biochemistry 33:3831-3840 (1994); Pantoliano, M. W. et al., Biochemistry 33:10229-10248 (1994); Springer, B. A. et al., J. Biol. Chem. 269:26879-26884 (1994)). Recombinant aFGF was then purified by heparin-sepharose affinity chromatography as described (Thompson, L. D. et al., Biochemistry 33:3831-3840 (1994)). aFGF is also known to bind heparin/heparan, which is a cofactor for mitogenic activity. […] A microplate thermal assay of these compounds was set up in a way similar to that described above for human α-thrombin. […] The affinity constants covered a fairly broad range of binding affinities, with pentosan PSO4 showing the highest affinity.

In the next data set the target is bFGF (Homo sapiens, UniProt P09038). The following applies: read-out: affinity for binding to bFGF by isothermal titrating calorimetry; cited from earlier work.
The conditions of data set [2]: many described as coagulation anomalies; cited from earlier work.
Data set [3] relates to D(II) domain of fibroblast growth factor receptor 1 (FGFR1). Kind of data set: Microplate thermal shift assay for ligands binding to D(II) FGFR1, fluorescence emission signal. The arrangement: species or system human. The following applies: D(II) FGFR1 70 μM; 136 μM ANS; ligand 150-156 μM. From the text:
The microplate thermal-shift assay was employed to test the binding of heparin 5000 and pentosan PSO4 to the known heparin binding site in the D(II) domain of fibroblast growth factor receptor 1 (FGFR1). D(II) FGFR1 is a 124 residue domain which is responsible for most of the free energy of binding for bFGF. D(II) FGFR1 was cloned and expressed in E. coli. Recombinant D(II) FGFR1 was renatured from inclusion bodies essentially as described (Wetmore, D. R. et al., Proc. Soc. Mtg., San Diego, Calif. (1994)), except that a hexa-histidine tag was included at the N-terminus to facilitate recovery by affinity chromatography on a Ni^2+ chelate column (Janknecht, R. et al., Natl. Acad. Sci. USA 88:8972-8976 (1991)). D(II) FGFR1 was further purified on a heparin-sepharose column (Kan, M. et al., Science 259:1918-1921 (1993); Pantoliano, M. W. et al., Biochemistry 33:10229-10248 (1994)). […]
The D(II) FGFR1 protein was dissolved in an ANS solution to a concentration of 1.0 mg/mL (70 μM). […] Because ANS fluorescence is very environment dependent (see Lakowicz, I. R., Principles of Fluorescence Spectroscopy, Plenum Press, New York (1983)), the quantum yield observed for the denaturation of different proteins will vary. […] A similar result was obtained for Factor Xa, except that the fluorescence quantum yield for ANS bound to denatured Factor Xa was almost as good as it was for human α-thrombin.

In data set [4] the target is T2, heparin binding site of human α-thrombin (Homo sapiens, UniProt P00734).
T2 construct: A stock human α-thrombin solution (1.56 mg/mL) from Enzyme Research Labs; purchased Enzyme Research Labs
The experiment in a line: Microplate thermal shift assay, ligands binding to the heparin binding site, turbidity signal. From the text:
Assays for ligands that bind to the heparin binding site of human α-thrombin are more difficult to perform than assays for ligands that bind to the active site of human α-thrombin. At the heparin binding site, no substrate is hydrolyzed, so no spectrophotometric signal can be amplified for instrumental detection. Heparin activity is usually estimated in biological clotting time assays. […] Thus, heparin binding to human α-thrombin represents the kind of challenge encountered with the vast majority of non-enzyme receptor/ligand binding events, which are commonly observed for hormone/receptor interactions, repressor/DNA interactions, neurotransmitter/receptor interactions, etc. Several heparin-like sulfated oligosaccharides and sulfated naphthalene compounds were assayed by the microplate thermal shift assay. Using the thermal shift assay, it was possible to use a single compound per well to quickly rank the compounds in order of increasing binding affinity, with Kd's ranging over three orders of magnitude (see Table 4). Like the experiment in Example 1, the thermal shift assay results agreed closely with the results obtained through an alternative method, which required a series of laborious (15 to 20 single determinations) fluorescence quench assays over a wide range of concentrations of low MW heparin (Olson, S. T. et al., J. Biol. Chem. 266:6342-6352 (1991)).

Chain of bFGF (P09038 134-288): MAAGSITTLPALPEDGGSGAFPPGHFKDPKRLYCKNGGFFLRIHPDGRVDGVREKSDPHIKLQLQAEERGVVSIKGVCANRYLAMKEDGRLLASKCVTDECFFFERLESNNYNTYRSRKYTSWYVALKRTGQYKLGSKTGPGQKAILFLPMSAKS
Chain of D(II) domain of fibroblast growth factor receptor 1 (FGFR1) (P11362 158-246 limits assumed): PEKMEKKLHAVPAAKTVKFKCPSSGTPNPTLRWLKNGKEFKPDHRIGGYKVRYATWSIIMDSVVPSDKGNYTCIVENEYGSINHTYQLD
T1 sequence (P05230 whole entry, species assumed): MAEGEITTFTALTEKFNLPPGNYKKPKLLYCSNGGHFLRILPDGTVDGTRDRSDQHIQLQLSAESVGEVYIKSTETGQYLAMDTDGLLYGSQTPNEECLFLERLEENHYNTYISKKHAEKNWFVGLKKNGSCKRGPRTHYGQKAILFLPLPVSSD

As for pentosan polysulfate [Pentosan PSO4], the Tm in data set [1] worked out at 336.15 °K; in data set [3], 319.4 °K; in data set [4] (turbidity signal, 11 μM thrombin, ligand 40-102 μM) it was 332.15 °K. Moreover, the Kd at bFGF was 88 nM. Besides, in data set [2], the “outcome of clinical trials for antiangiogenic activity” value is on record as “discounted due to toxic effects”. For the same substance, the “affinity at Tm higher than the affinity of heparin 5000” value in data set [4] (thermal shift assay, Table 4) is reported as 7 fold.

Values taken from patent US6569631B1, “Microplate thermal shift assay for ligand development using 5-(4″dimethylaminophenyl)-2-(4′-phenyl)oxazole derivative fluorescent dyes” (3-Dimensional Pharmaceuticals, Inc., priority 1998, dated 2003).
